Measured values: paper PMC11645656, “MRGPRX4 mediates phospho-drug associated pruritus in a humanized mouse model” (Science translational medicine, 2024)
Several values for one entry are separate records, joined by “and”; a condition that tells them apart may be missing. Equal values may be shown once.

Columns and labels:
[1] = tested on: HTLA cells; experiment: PRESTO-Tango β-arrestin recruitment assay, parental HTLA cells without MRGPRX4 (control, fig. S1); format: cell-based
Source text: Supplement NIHMS2038790-supplement-table.xlsx, sheet "fig. S1" | column: Concentration (M)

[2] = target: T1, MRGPRX4 Y250A (Homo sapiens, UniProt Q96LA9, L83S/Y250A); experiment: Calcium mobilization assay (FLIPR), MRGPRX4 Y250A mutant; format: cell-based
T1 construct: expressed in transfected cells; host or cells: HEK293T, transient
Source text: (§1) Fig. 3. […] (A) Cryo-EM density map of MRGPRX4-Gq in complex with fospropofol. (B) The density map of fospropofol and R82 of MRGPRX4. (C and D) Key molecular interactions between fospropofol and the hydrophilic (C) and hydrophobic (D) part of the agonist binding pocket of MRGPRX4. Amino acid residues interacting with fospropofol are shown as sticks. Hydrogen bond is shown as cyan dashed lines. […] Data are from at least three independent experiments, each performed in triplicate, and reported as the mean ± SEM. (E) and (F) were collected from the same sets of experiments.
(§2) To generate murine Mrgprs expressing cells, HEK293T cells (ATCC) were seeded on poly-D-lysine coated 96 well plate at 25,000 cells per well one day prior to transfection. HEK293T cells were transiently co-transfected with the mammalian expression plasmids carrying cDNA encoding the murine Mrgpr genes and plasmid inserted with cDNA encoding murine α-subunit of the heterotrimeric G15 protein (Gα15) in triplicates using Lipofectamine LTX reagents (Thermo Scientific). To generate WT, S83L, and alanine mutant MRGPRX4-expressing cells, HEK293T cells were seeded on poly-D-lysine coated 384 well plate at 12,000 cells per well one day prior to transfection. […]

[3] = tested on: WT mice; experiment: Itch behavioral study in WT mice across concentrations (fig. S4)
Experimental: Experimenters and subjects scoring the recorded videos were both blind to the mouse genotype and tested compounds. Behavioral tests comparing NP2-WT and NP2-X4+ scratching behavior were 6–12weeks old littermates including both genders. In brief, on the day preceding the experiment, animals were acclimated to the test chamber for at least 30 min and the experimenters performed mock injections 1–2 times in between. On the day of experiments, animals were habituated in test chambers for 10 min before receiving subcutaneous injection of 50ul compounds. Videos were recorded for 30 min after the injection. A bout of scratching was defined as a sustained scratching movement initiated by hindpaws toward the injection site (until the pause of the movement / withdrawal of the hindpaw). Scratching bouts were quantified within the 30 min record sessions.

[4] = target: MRGPRX4 S83L (L83) (Homo sapiens, UniProt Q96LA9); experiment: PRESTO-Tango β-arrestin recruitment assay, HTLA cells stably expressing S83L MRGPRX4; format: cell-based; conditions: single replicate
Experimental: HTLA cells, a cell line derived from HEK293 and engineered to stably express a tTA-dependent luciferase reporter and a β-arrestin2-TEV fusion gene, were generously provided by Richard Axel's laboratory. HTLA cells were cultured in growth medium containing 2 μg/ml puromycin and 100 μg/ml hygromycin B in 5% CO2 at 37 °C. Stably MRGPRX4-expressing HTLA cells were generated by transfecting pcDNA3.1(+)-Zeo containing MRGPRX4-Tango construct (either with WT or S83L mutant sequence) into HTLA cells with Lipofectamine 3000 and selecting the successful transfected clones with Zeocin.
HTLA cells stably expressing either WT or S83L MRGPRX4 were seeded in PDL-coated 96-well white clear bottom cell culture plates with DMEM containing 10% FBS, at a density of 35,000 cells per well and were allowed to attach to the bottom of the wells overnight. The next day, growth medium was replaced with 100 μl of serum-free medium containing the tested drugs at various concentrations, and the cells were then incubated at 37°C for 24 h. On the following day, media with drug solutions was removed and 50 μl per well of Bright-Glo™ Reagent from Bright-Glo™ Luciferase Assay System (Promega) was loaded. The plate was incubated at room temperature in the dark for 5 min, and the relative luminescence units were measured using the Flexstation-3 instrument with SoftMax®Pro 7.1 software (Molecular Devices). Dose response curves and EC50s were analyzed as described above.
MRGPRX4 by β-arrestin (Tango) recruitment assay. Data are from three independent experiments,
performed in triplicate, and depicted as mean ± SEM.

[5] = tested on: WT NP1-3 DRG neurons; experiment: GCaMP6s calcium imaging of NP1-3 DRG neurons from Pirt-Cre; Rosa-lsl-GCaMP6s mice; format: cell-based, mouse; conditions: 10 µM
Experimental: Murine DRGs (from both male and female) were harvested from all spinal segments and digested in dispase (5 mg/ml) / type I collagenase (1 mg/ml) enzyme mix at 37 °C for an hour. Enzyme mix was replaced with complete DH10 media (90% DMEM/F12, 10% FBS, penicillin (100 units/ml), and streptomycin (100 μg/ml)) and gently triturated with 1 ml pipette tip until the media turned cloudy without visible tissue chunks. Dissociated tissues were filtered through a 70 μm filter and spun down 1250 rpm for 5 min at RT. Supernatant was removed and the cell pellet was resuspended in complete DH10 media. Cell suspension was then added on top of poly-D-lysine- and laminin-coated coverslips and sat for 1–2 h at 37°C. Complete DH10 media supplemented with NGF (50 ng/ml) was then added into the vessel. Neurons were allowed to recover overnight at 37°C for the next-day calcium imaging experiment.
Calcium imaging data was collected with a Nikon Eclipse TE 200 microscope. Time series GCaMP6 fluorescence intensity was acquired through the FITC/GFP channel. […] Neurons with GCaMP6 signal rose above 50% of the baseline intensity after compound application were counted as positive responders and the percentage of responding neurons was calculated. […]
(top) and individual (bottom) calcium activity, measured by fluorescence intensity normaliz ed to […]
activity from the recorded neurons is shown in heatmap. […]

[6] = target: T2, MRGPRX4 R86A (Homo sapiens, UniProt Q96LA9, L83S/R86A); experiment: Calcium mobilization assay (FLIPR), MRGPRX4 R86A mutant; format: cell-based
T2 construct: expressed in transfected cells; host or cells: HEK293T, transient
Source text: as §1, §2

[7] = 1 mM subcutaneous nape injection
[8] = 10 mM subcutaneous nape injection

Sequence of MRGPRX4 S83L (L83) (Q96LA9 whole entry, stated change not applied, the tested form may be a part): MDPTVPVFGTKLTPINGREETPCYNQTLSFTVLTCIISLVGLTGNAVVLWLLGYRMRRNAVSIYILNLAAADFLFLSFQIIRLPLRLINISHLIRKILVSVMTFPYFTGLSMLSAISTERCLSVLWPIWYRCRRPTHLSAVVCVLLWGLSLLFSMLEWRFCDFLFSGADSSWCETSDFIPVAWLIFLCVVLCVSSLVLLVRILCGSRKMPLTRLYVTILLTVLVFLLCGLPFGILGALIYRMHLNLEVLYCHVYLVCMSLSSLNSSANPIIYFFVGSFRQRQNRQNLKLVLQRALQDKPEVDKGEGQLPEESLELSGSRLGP
T1 sequence (Q96LA9 whole entry L83S/Y250A): as the sequence (Q96LA9 whole entry, stated change not applied, the tested form may be a part) above, with L83S, Y250A counted along it
T2 sequence (Q96LA9 whole entry L83S/R86A): as the sequence (Q96LA9 whole entry, stated change not applied, the tested form may be a part) above, with L83S, R86A counted along it

O=C1NC(=O)C(c2ccccc2)(c2ccccc2)N1 [Phenytoin]
PRESTO-Tango response (fig. S1), single replicate ([1]; concentration 4.88281e-6 M): 0.008545 and 0.005867 and 0.007953 and 0.006901 and 0.004547 and 0.009824
PRESTO-Tango response (fig. S1), single replicate ([1]; concentration 9.76563e-6 M): 0.00741 and 0.01006 and 0.006055 and 0.01246 and 0.001908 and 0.0161
PRESTO-Tango response (fig. S1), single replicate ([1]; concentration 1.95313e-5 M): 0.004145 and 0.01453 and 0.008851 and 0.01106 and 0.007187 and 0.01768
PRESTO-Tango response (fig. S1), single replicate ([1]; concentration 3.90625e-5 M): 0.005318 and 0.007104 and 0.005862 and 0.009351 and 0.00878 and 0.001453
PRESTO-Tango response (fig. S1), single replicate ([1]; concentration 7.8125e-5 M): 0.01242 and 0.005662 and 0.007299 and 0.009043 and 0.01323 and 0.004261
PRESTO-Tango response (fig. S1), single replicate ([1]; concentration 0.0003125 M): 0.006045 and 0.003571 and 0.004631 and 0.006824 and 0.00263 and 0.004138
PRESTO-Tango response (fig. S1), single replicate ([1]; concentration 0.000625 M): 0.006823 and 0.004668 and 0.00481 and 0.009762 and 0.00692 and 0.01249
PRESTO-Tango response (fig. S1), single replicate ([1]; concentration 0.0025 M): 0.006747 and 0.00542 and 0.005105 and 0.007273 and 0.002426 and 0.006102
PRESTO-Tango response (fig. S1), single replicate ([1]; concentration 0.005 M): 0.003966 and 0.00315 and 0.01104 and 0.009531 and 0.005922 and 0.01091

O=C1NC(c2ccccc2)(c2ccccc2)C(=O)N1COP(=O)(O)O [Fosphenytoin]
Calcium mobilization response at alanine mutant Y250A vs WT [2]: disrupted calcium mobilization
Scratching bouts (each well represents individual mouse) [3, 7]: 0 (2×) and 16 (2×) and 11 and 26
Scratching bouts (each well represents individual mouse) [3, 8]: 3 and 4 and 1 and 0 and 26
fig. S7 response (raw signal), concentration-response ([4]; 3.91e-6 M): 13508.2
fig. S7 response (raw signal), concentration-response ([4]; 7.81e-6 M): 22144.4
Activation of NP1–3 neuron populations [5]: few neurons were activated
PRESTO-Tango response (fig. S1), single replicate ([1]; concentration 3.91e-6 M): 0.004928 and 0.004598 and 0.01112 and 0.01116 and 0.003197 and 0.004271
PRESTO-Tango response (fig. S1), single replicate ([1]; concentration 7.81e-6 M): 0.007499 and 0.005683 and 0.007727 and 0.01002 and 0.00431 and 0.008159
PRESTO-Tango response (fig. S1), single replicate ([1]; concentration 1.56e-5 M): 0.004669 and 0.01023 and 0.009474 and 0.01705 and 0.007507 and 0.01409
PRESTO-Tango response (fig. S1), single replicate ([1]; concentration 3.13e-5 M): 0.006626 and 0.01061 and 0.0114 and 0.01987 and 0.004604 and 0.008542
PRESTO-Tango response (fig. S1), single replicate ([1]; concentration 6.25e-5 M): 0.01361 and 0.01504 and 0.01581 and 0.04311 and 0.006432 and 0.0129
PRESTO-Tango response (fig. S1), single replicate ([1]; concentration 0.00025 M): 0.01688 and 0.03926 and 0.02383 and 0.08171 and 0.008888 and 0.02076
PRESTO-Tango response (fig. S1), single replicate ([1]; concentration 0.0005 M): 0.0416 and 0.04542 and 0.03124 and 0.09673 and 0.01269 and 0.03191
PRESTO-Tango response (fig. S1), single replicate ([1]; concentration 0.001 M): 0.01837 and 0.05513 and 0.03077 and 0.1069 and 0.01168 and 0.03953
PRESTO-Tango response (fig. S1), single replicate ([1]; concentration 0.002 M): 0.01971 and 0.05409 and 0.03051 and 0.1054 and 0.01079 and 0.03852
PRESTO-Tango response (fig. S1), single replicate ([1]; concentration 0.004 M): 0.01886 and 0.05018 and 0.02929 and 0.08185 and 0.01164 and 0.032
Calcium mobilization response at alanine mutant R86A vs WT [6]: either greatly attenuated or abolished

CC(C)c1cccc(C(C)C)c1OCOP(=O)(O)O [Fospropofol]
Calcium mobilization response at alanine mutant Y250A vs WT [2]: disrupted calcium mobilization
Scratching bouts (each well represents individual mouse) [3, 7]: 16 and 12 and 11 and 28
Scratching bouts (each well represents individual mouse) [3, 8]: 5 and 20 and 15 and 16
fig. S7 response (raw signal), concentration-response ([4]; 1.95e-8 M): 10514
Activation of NP1–3 neuron populations [5]: few neurons were activated
PRESTO-Tango response (fig. S1), single replicate ([1]; concentration 1.95e-8 M): 0.00694 and 0.004644 and 0.006153 and 0.00965 and 0.002832 and 0.003328 and 0.008458 and 0.007173 and 0.001142
PRESTO-Tango response (fig. S1), single replicate ([1]; concentration 3.91e-8 M): 0.00458 and 0.005779 and 0.004441 and 0.006153 and 0.01503 and 0.00701 and 0.000445 and 0.01011 and 0.01094
PRESTO-Tango response (fig. S1), single replicate ([1]; concentration 7.81e-8 M): 0.003343 and 0.006009 and 0.009902 and 0.005737 and 0.003469 and 0.004602 and 0.006927 and 0.00283 and 0.006775
PRESTO-Tango response (fig. S1), single replicate ([1]; concentration 1.56e-7 M): 0.003508 and 0.005703 and 0.009009 and 0.008984 and 0.006514 and 0.007694 and 0.009731 and 0.002935 and 0.00804
PRESTO-Tango response (fig. S1), single replicate ([1]; concentration 3.13e-7 M): 0.002922 and 0.004925 and 0.007537 and 0.0115 and 0.004508 and 0.006726 and 0.004052 and 0.005477 and 0.00953
PRESTO-Tango response (fig. S1), single replicate ([1]; concentration 6.25e-7 M): 0.004976 and 0.01037 and 0.009311 and 0.01735 and 0.01013 and 0.008402 and 0.01193 and 0.01132 and 0.007015
PRESTO-Tango response (fig. S1), single replicate ([1]; concentration 1.25e-6 M): 0.005116 and 0.008433 and 0.01261 and 0.0248 and 0.006302 and 0.01317 and 0.01357 and 0.000979 and 0.02066
PRESTO-Tango response (fig. S1), single replicate ([1]; concentration 2.5e-6 M): 0.004708 and 0.01187 and 0.01433 and 0.0357 and 0.005924 and 0.01747 and 0.01767 and 0.01738 and 0.009944
PRESTO-Tango response (fig. S1), single replicate ([1]; concentration 5e-6 M): 0.006149 and 0.02356 and 0.0209 and 0.04204 and 0.009157 and 0.0186 and 0.01895 and 0.003902 and 0.03736
PRESTO-Tango response (fig. S1), single replicate ([1]; concentration 1e-5 M): 0.007859 and 0.01771 and 0.01368 and 0.04592 and 0.005971 and 0.02299 and 0.000906 and 0.03405 and 0.02211
PRESTO-Tango response (fig. S1), single replicate ([1]; concentration 2e-5 M): 0.005575 and 0.02041 and 0.01412 and 0.04838 and 0.01541 and 0.027 and 0.00299 and 0.03805 and 0.0244
Calcium mobilization response at alanine mutant R86A vs WT [6]: either greatly attenuated or abolished
